Experimental data taken from the NIST ThermoML archive (doi:10.1021/acs.jced.8b00693).
± gives the expanded uncertainty stated by the source. One block for each compound: values may come before it.

Assays:
[1] = wn = mass fraction of the nth substance listed; conditions: 298.15 K, 100 kPa, Liquid, Pycnometric method
[2] = refractive index (Na D-line) (dimensionless); wn = mass fraction of the nth substance listed; conditions: 298.15 K, 100 kPa, Liquid, Standard Abbe refractometry

mass density ([1]; w1 = 0.6463): 2009.2 ± 24 kg/m3
refractive index ([2]; w1 = 0.6463): 1.4095 ± 0.002
Structure (SMILES): O=S(=O)([O-])[O-].[Cs+].[Cs+] [cesium sulfate] + O

mass density ([1]; w1 = 0.3365): 1363.1 ± 24 kg/m3
refractive index ([2]; w1 = 0.3365): 1.3649 ± 0.002
Structure (SMILES): O=S(=O)([O-])[O-].[Rb+].[Rb+] [rubidium sulfate] + O

mass density ([1]; w1 = 0.218): 1183 ± 24 kg/m3
refractive index ([2]; w1 = 0.218): 1.3628 ± 0.002
Structure (SMILES): O=S(=O)([O-])[O-].[Na+].[Na+] [sodium sulfate] + O
